According to patent US20250270200A1, “CTPS1 INHIBITORS AND USES THEREOF” (Nimbus Clotho, Inc., priority 2022, published 2025):

Target: T1, human CTPS1 (Homo sapiens, UniProt P17812)
T1 sequence (P17812 1-591): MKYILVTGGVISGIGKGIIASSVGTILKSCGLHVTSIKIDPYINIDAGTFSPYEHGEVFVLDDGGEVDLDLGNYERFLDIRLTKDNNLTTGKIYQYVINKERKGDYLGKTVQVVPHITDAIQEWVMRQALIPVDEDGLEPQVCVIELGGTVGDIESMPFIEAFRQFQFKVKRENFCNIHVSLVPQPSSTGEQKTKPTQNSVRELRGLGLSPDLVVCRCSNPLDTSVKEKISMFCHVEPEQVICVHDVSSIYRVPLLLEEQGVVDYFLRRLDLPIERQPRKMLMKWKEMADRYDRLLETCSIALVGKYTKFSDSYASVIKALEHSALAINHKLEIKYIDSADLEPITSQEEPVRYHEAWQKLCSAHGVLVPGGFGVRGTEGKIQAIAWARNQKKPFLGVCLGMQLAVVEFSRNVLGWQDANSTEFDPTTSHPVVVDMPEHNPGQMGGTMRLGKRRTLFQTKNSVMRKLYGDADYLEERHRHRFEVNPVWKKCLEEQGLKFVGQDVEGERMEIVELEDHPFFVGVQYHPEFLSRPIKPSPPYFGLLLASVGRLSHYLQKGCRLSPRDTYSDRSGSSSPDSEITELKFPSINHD
Test: ADP-Glo assay, human CTPS1 enzyme inhibition
Format: biochemical
Settings: wild-type human CTPS1, 25 nM enzyme; ADP-Glo; read-out: ADP-Glo_WT_hCTPS1—25 nM_IC50 (IC50)
Outline: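 ADP-Glo luminescence quantified ADP produced by 25 nM purified human CTPS1 (full length, FLAG-His tagged) at 25° C within the linear phase. Final substrates: ATP 120 μM, UTP 160 μM, GTP 60 μM, L-glutamine 100 μM; 1% DMSO; pH 7.4 HEPES buffer with Mg2+, KCl, DTT. Compound pre-incubated with enzyme 10 min, then with ATP/UTP 10 min.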

Question: For `C[C@H](O)[C@H](NC(=O)c1ncc(-c2cnn3ccc(Cl)cc23)s1)c1cc(NS(=O)(=O)C2CC2)ccn1` [I-272, 5-(5-chloropyrazolo[1,5-a]pyridin-3-yl)-N-((1R,2S)-1-(4-(cyclopropanesulfonamido)pyridin-2-yl)-2-hydroxypropyl)thiazole-2-carboxamide], which IC50 is on record?
Answer: Its IC50 is 5 to 25 nM.

Question: With `C[C@H](O)[C@@H](NC(=O)c1ncc(-c2cnn3ccc(Cl)cc23)s1)c1cc(NS(=O)(=O)C2CC2)ccn1` [I-273, 5-(5-chloropyrazolo[1,5-a]pyridin-3-yl)-N-((1S,2S)-1-(4-(cyclopropanesulfonamido)pyridin-2-yl)-2-hydroxypropyl)thiazole-2-carboxamide] as the compound, how does the IC50 read?
Answer: The IC50 was 5 to 25 nM.

Question: `C[C@@H](O)[C@@H](NC(=O)c1ncc(-c2cnn3ccc(Cl)cc23)s1)c1cc(NS(=O)(=O)C2CC2)ccn1` [I-274, 5-(5-chloropyrazolo[1,5-a]pyridin-3-yl)-N-((1S,2R)-1-(4-(cyclopropanesulfonamido)pyridin-2-yl)-2-hydroxypropyl)thiazole-2-carboxamide] was tested. Which IC50 did it give?
Answer: The IC50 was 5 to 25 nM.

Question: `CCOc1cncc(-c2cnc(C(=O)N[C@@H](c3cc(NS(=O)(=O)C4CC4)ccn3)C(C)(C)O)s2)n1` [I-275, (S)-N-(1-(4-(cyclopropanesulfonamido)pyridin-2-yl)-2-hydroxy-2-methylpropyl)-5-(6-ethoxypyrazin-2-yl)thiazole-2-carboxamide] was tested. Which IC50 did it give?
Answer: The IC50 was 25 to 50 nM.

Question: Which IC50 does the source give for `CCOc1cncc(-c2cnc(C(=O)N[C@H](c3cc(NS(=O)(=O)C4CC4)ccn3)C(C)(C)O)s2)n1` [I-276, (R)-N-(1-(4-(cyclopropanesulfonamido)pyridin-2-yl)-2-hydroxy-2-methylpropyl)-5-(6-ethoxypyrazin-2-yl)thiazole-2-carboxamide] here?
Answer: Its IC50 is 5 to 25 nM.

Question: For `CC(C)(O)[C@H](NC(=O)c1ncc(-c2cnn3ccc(Cl)cc23)s1)c1cc(NS(=O)(=O)C2CC2)ccn1` [I-277, (R)-5-(5-chloropyrazolo[1,5-a]pyridin-3-yl)-N-(1-(4-(cyclopropanesulfonamido)pyridin-2-yl)-2-hydroxy-2-methylpropyl)thiazole-2-carboxamide], which IC50 is on record?
Answer: The IC50 was 50 to 100 nM.

Question: How did the IC50 turn out when `CC(C)(O)[C@@H](NC(=O)c1ncc(-c2cnn3ccc(Cl)cc23)s1)c1cc(NS(=O)(=O)C2CC2)ccn1` [I-278, (S)-5-(5-chloropyrazolo[1,5-a]pyridin-3-yl)-N-(1-(4-(cyclopropanesulfonamido)pyridin-2-yl)-2-hydroxy-2-methylpropyl)thiazole-2-carboxamide] was run?
Answer: Its IC50 is 50 to 100 nM.

Question: `CCOc1cncc(-c2ccc(C(=O)N[C@@H](COC)c3cc(NS(=O)(=O)C4CC4)ccn3)cc2)n1` [I-279, (R)-N-(1-(4-(cyclopropanesulfonamido)pyridin-2-yl)-2-methoxyethyl)-4-(6-ethoxypyrazin-2-yl)benzamide] was tested. Which IC50 did it give?
Answer: Its IC50 is 5 to 25 nM.

Question: `CCOc1cncc(-c2ccc(C(=O)N[C@H](COC)c3cc(NS(=O)(=O)C4CC4)ccn3)cc2)n1` [I-280, (S)-N-(1-(4-(cyclopropanesulfonamido)pyridin-2-yl)-2-methoxyethyl)-4-(6-ethoxypyrazin-2-yl)benzamide] was tested. Which IC50 did it give?
Answer: Its IC50 is 25 to 50 nM.

Question: Which IC50 does the source give for `CCOc1cncc(-c2cnc(C(=O)N[C@@H](COC)c3ccnc(NS(=O)(=O)C4CC4)n3)s2)n1` [I-281, (R)-N-(1-(2-(cyclopropanesulfonamido)pyrimidin-4-yl)-2-methoxyethyl)-5-(6-ethoxypyrazin-2-yl)thiazole-2-carboxamide] here?
Answer: Its IC50 is 5 to 25 nM.

Question: How did the IC50 turn out when `CCOc1cncc(-c2ccc(C(=O)N[C@@H](COC)c3cc(NS(=O)(=O)C4CC4)ccn3)c(F)c2)n1` [I-282, (R)-N-(1-(4-(cyclopropanesulfonamido)pyridin-2-yl)-2-methoxyethyl)-4-(6-ethoxypyrazin-2-yl)-2-fluorobenzamide] was run?
Answer: The IC50 was 25 to 50 nM.

Question: `CCOc1cncc(-c2ccc(C(=O)N[C@H](COC)c3cc(NS(=O)(=O)C4CC4)ccn3)c(F)c2)n1` [I-283, (S)-N-(1-(4-(cyclopropanesulfonamido)pyridin-2-yl)-2-methoxyethyl)-4-(6-ethoxypyrazin-2-yl)-2-fluorobenzamide] was tested. Which IC50 did it give?
Answer: Its IC50 is 50 to 100 nM.

Question: How did the IC50 turn out when `COC[C@H](NC(=O)c1ccc(-c2cnn3ccc(Cl)cc23)cc1F)c1cc(NS(=O)(=O)C2CC2)ccn1` [I-284, (R)-4-(5-chloropyrazolo[1,5-a]pyridin-3-yl)-N-(1-(4-(cyclopropanesulfonamido)pyridin-2-yl)-2-methoxyethyl)-2-fluorobenzamide] was run?
Answer: Its IC50 is > 100 nM.

Question: With `COC[C@@H](NC(=O)c1ccc(-c2cnn3ccc(Cl)cc23)cc1F)c1cc(NS(=O)(=O)C2CC2)ccn1` [I-285, (S)-4-(5-chloropyrazolo[1,5-a]pyridin-3-yl)-N-(1-(4-(cyclopropanesulfonamido)pyridin-2-yl)-2-methoxyethyl)-2-fluorobenzamide] as the compound, how does the IC50 read?
Answer: The IC50 was 50 to 100 nM.

Question: How did the IC50 turn out when `CCOc1cncc(-c2cnc(C(=O)N[C@H](c3cccc(NS(=O)(=O)C(F)F)c3)[C@@H](C)O)s2)n1` [I-286, N-((1R,2R)-1-(3-((difluoromethyl)sulfonamido)phenyl)-2-hydroxypropyl)-5-(6-ethoxypyrazin-2-yl)thiazole-2-carboxamide] was run?
Answer: The IC50 was 5 to 25 nM.

Question: `CCOc1cncc(-c2cnc(C(=O)N[C@@H](c3cccc(NS(=O)(=O)C(F)F)c3)[C@@H](C)O)s2)n1` [I-287, N-((1S,2R)-1-(3-((difluoromethyl)sulfonamido)phenyl)-2-hydroxypropyl)-5-(6-ethoxypyrazin-2-yl)thiazole-2-carboxamide] was tested. Which IC50 did it give?
Answer: Its IC50 is 5 to 25 nM.

Question: For `CCOc1cncc(-c2cnc(C(=O)N[C@@H](c3cccc(NS(=O)(=O)C(F)F)c3)[C@H](C)O)s2)n1` [I-288, N-((1S,2S)-1-(3-((difluoromethyl)sulfonamido)phenyl)-2-hydroxypropyl)-5-(6-ethoxypyrazin-2-yl)thiazole-2-carboxamide], which IC50 is on record?
Answer: Its IC50 is 5 to 25 nM.

Question: For `CCOc1cncc(-c2cnc(C(=O)N[C@H](c3cccc(NS(=O)(=O)C(F)F)c3)[C@H](C)O)s2)n1` [I-289, N-((1R,2S)-1-(3-((difluoromethyl)sulfonamido)phenyl)-2-hydroxypropyl)-5-(6-ethoxypyrazin-2-yl)thiazole-2-carboxamide], which IC50 is on record?
Answer: Its IC50 is 5 to 25 nM.

Question: `CCOc1cncc(-c2cnc(C(=O)N[C@@H](c3cccc(NS(=O)(=O)C(F)F)c3)C(C)(C)O)s2)n1` [I-290, (S)-N-(1-(3-((difluoromethyl)sulfonamido)phenyl)-2-hydroxy-2-methylpropyl)-5-(6-ethoxypyrazin-2-yl)thiazole-2-carboxamide] was tested. Which IC50 did it give?
Answer: Its IC50 is 5 to 25 nM.

Question: `CCOc1cncc(-c2cnc(C(=O)N[C@H](c3cccc(NS(=O)(=O)C(F)F)c3)C(C)(C)O)s2)n1` [I-291, (R)-N-(1-(3-((difluoromethyl)sulfonamido)phenyl)-2-hydroxy-2-methylpropyl)-5-(6-ethoxypyrazin-2-yl)thiazole-2-carboxamide] was tested. Which IC50 did it give?
Answer: The IC50 was 5 to 25 nM.

Question: For `CCOc1cncc(-c2cnc(C(=O)N[C@H](COC)c3cccc(NS(=O)(=O)C(F)F)c3)s2)n1` [I-292, (S)-N-(1-(3-((difluoromethyl)sulfonamido)phenyl)-2-methoxyethyl)-5-(6-ethoxypyrazin-2-yl)thiazole-2-carboxamide], which IC50 is on record?
Answer: The IC50 was 5 to 25 nM.

Question: With `CCOc1cncc(-c2cnc(C(=O)N[C@@H](COC)c3cccc(NS(=O)(=O)C(F)F)c3)s2)n1` [I-293, (R)-N-(1-(3-((difluoromethyl)sulfonamido)phenyl)-2-methoxyethyl)-5-(6-ethoxypyrazin-2-yl)thiazole-2-carboxamide] as the compound, how does the IC50 read?
Answer: The IC50 was 5 to 25 nM.
